This is an account of results in patent publication US8324284B2, “Migrastatin analogs and uses thereof” (Sloan-Kettering Institute for Cancer Research, priority 2003, dated 2012).

Like-named read-outs stand apart in the source and are kept apart here.

For series [1] the following is noted: rcm bond, toluene, 0.25 h.
The test system of series [2] is 4T1 mouse breast tumor cells. Briefly: Chamber cell migration assay with 4T1 tumor cells. Format: cell-based. The following applies: for IC50: Boyden chamber, 6-8 h, average of three experiments; for inhibitory activity on 4T1 tumor cell migration, in words: chamber assay. Here is the method:
The biological evaluation of the compounds (in terms of their ability to inhibit cell migration) was accomplished in a Boyden chamber cell migration assay. In this assay, mouse breast tumor cells (4T1 cells) or endothelial cells (HUVECs) are seeded on the upper chamber of a transwell insert. Growth factor-containing serum is added to the lower chamber.
Chamber Cell Migration Assay (Tables 4 and 6): Cell migrations were assayed with Boyden chambers [8.0 μm pore size, polyethylene terephthalate membrane, FALCON cell culture insert (Becton-Dickinson)]. 4T1 mouse breast tumor cells or HUVECs were trypsinized and counted. 300 μl of 5−10×10^4 cells in serum-free medium was added to the upper chamber and 500 μl of medium with 10% fetal bovine serum (FBS) was added to the lower chamber. […] Cells on the inside of the transwell inserts were removed with a cotton swab, and cells on the underside of the insert were fixed and stained. Photographs of three random regions were taken and the number of cells was counted to calculate the average number of cells that have transmigrated.

Another series relates to HUVEC. Briefly: Tube formation assay. To be noted: minimal concentration causing definite disturbance of tube network; 16-18 h; tested 200, 100, 50, 25, 10 μM. The class given is cell-based, human. As to the method: A protocol was designed based on the instructions from the provider (BD Bioscience, San Jose, Calif.). Briefly, wells of a 48 well culture dish were covert with 150 μL matrigel and the matrigel was gelatinized for 30 min at 37° C. A 80-90% confluent HUVEC (BD Bioscience, San Jose, Calif.) culture was trypsin treated, the detached cells were collected by centrifugation and resuspended in EGM-2 media (BD Bioscience, San Jose, Calif.). Cell concentration was adjusted to 100.000 cells/mL. 400 μL of the cell suspension were filled in the matrigel coated wells, and a solution of the inhibitor was added to the intended final concentration. The plates were incubated at 37° C. with 5% CO2 for 16-18 h. Media was removed, and the matrigel surface was washed twice with 500 μL PBS before cells were labeled with 250 μL […] Calcein AM (Pierce, Rockford, Ill.) in PBS for 30 min at 37° C. After two additional washing steps (500 μL PBS) cells were visualized under an inverted microscope. Fluorescence was excited at 488 nm and recorded at 538 nm. The minimum effect concentration was defined as the minimal inhibitor concentration that caused a definite disturbance of the complexity of the formed tube network.

A further series deals with KYSE-520 cells. The experiment in a line: Wound healing (scratch) assay. To be noted: 28 to 30 h, tested 200, 100, 50, 25, 10 μM. The class given is cell-based. Here is the method: The wound healing assay was performed based on the method described by Nakae et al. (Nakae et al., J. Antibiotics (2000), 53, 1130-1136). Briefly, adherent cells were grown in a suitable media to confluence (e.g. KYSE-520 cells in RPMI-1640 with 10% FBS). Cells were starved for 24 h in serum free media. A scratch (ca. 0.5 mm) was applied and the cell layer was washed twice with PBS after removal of the media. Fresh, serum free media with the test compound at the desired concentration was added and the cells were incubated for 28 to 30 h at 37° C., 5% CO2. The scratch size was compared to that observed for cells exposed to 100 μM Migrastatin. Test compounds associated with a scratch size equal to or larger than that observed for cells exposed to 100 μM Migrastatin were deemed to have cell migration inhibitory activity at least equal to Migrastatin.

The test system of series [3] is 4T1 tumor lung metastasis. Briefly: 4T1 tumor lung metastasis in syngeneic mice. The class given is in vivo, mouse. To be noted: for lung metastasis, colonies (6-thioguanine clonogenic assay): mean and standard deviation; for inhibition of lung metastasis: 10 mg/kg i.p. daily Day 7-25. As to the method: Female BALB/c mice (6-8 week old) were purchased from the Jackson Laboratory (Bar Harbor, Me.). All mice were housed at the Weill Medical College of Cornell University Animal Facilities in accordance with the Principles of Animal Care (NIH publication no. 85-23, revised 1985). 4T1 tumor cells (1×10^5) were injected subcutaneously into the abdominal mammary gland area of mice in 0.1 ml of a single-cell suspension in phosphate buffered saline (PBS) on Day 0. The dosage of tumor implantation was empirically determined to give rise to tumor of ˜10 mm in diameter in untreated wild type mice in 21-23 days. On Day 7, when the tumors averaged in size ˜4-5 mm in diameter, migrastatin analogs or control PBS saline were given every day by intraperitoneal injection at 10 mg/kg or 20 mg/kg per mouse until Day 25. On Day 28, the mice were sacrificed. This regiment of migrastatin analogs was well tolerated with no signs of overt toxicity. Every group included five mice. Primary tumors were measured using electronic calipers on the day when the mice were sacrificed. Tumor size was the square root of the product of two perpendicular diameters. Numbers of metastatic 4T1 cells in lung were determined by the clonogenic assay.^63 In brief, lungs were removed from each mouse on Day 28, finely minced and digested in 5 ml of enzyme cocktail containing 1×PBS and 1 mg/ml collagenase type IV for 2 hours at 37° C. on a platform rocker. After incubation, samples were filtered through 70 uM nylon cell strainers and washed twice with PBS. Resulting cells were suspended and plated serially diluted in 10 cm tissue culture dishes in medium RPMI1640 containing 60 uM thioguanine for clonogenic growth. 6-Thioguanine-resistant tumor cells formed foci after 14 days, at which time they were fixed with methanol and stained with 0.03% methylene blue for counting.
Treatment 4T1 tumor lung metastasis in syngeneic mice with migrastatin analogs (See, FIG. 4). 4T1 tumor cells (10^5) were injected s.c. in the abdominal mammary gland with 0.1 ml of a single-cell suspension. Macroketone or macrolactam at 10 mg/kg or 20 mg/kg was given i.p. on Day 7 when the tumor size was about 5 mm in diameter, and every day until Day 25. On Day 28, the mice were sacrificed. Each group comprised five mice. Lung metastasis was measured by the 6-thiogunine clonogenic assay. The mean and standard deviation are presented. In the control group (daily PBS injection), there were 61300±18900 colonies.

Series [4] in a line: Metabolic stability in mouse plasma. The class given is in vitro ADME. To be noted: mouse plasma/PBS, 37° C. Here is the method:
Mouse Plasma Stability Studies (Table 5): HPLC conditions: The sample is injected and separated using an Inertsil ODS3 6u 3×150 mm column with a mobile phase of MeCN and water (50% for migrastatin) at a flow of 0.4 mL/min, monitored at 220 nm at 0.02 AUFS (the retention time for migrastatin is ca. 4 min, the identity of this peak was confirmed by mass spectral analysis). Incubation and sample preparation conditions: A solution (ca. 30 mM) of chemical compound (Table 5) in DMSO is prepared. 2 μL of the solution is added to a mixture containing 200 μL of mouse plasma and 800 μL of PBS. The resulting solution is put into a water bath at 37° C., and 100 μL of sample is withdrawn at 10, 20, 30, 45, and 60 min. The precipitate is removed by centrifugation and 20 μL of the supernatant is injected onto the HPLC.

`CO[C@H]1C=CCC/C=C/C(=O)OC/C(C)=C\[C@@H](C)[C@@H]1O[Si](C)(C)C(C)(C)C` gave a ring closure, yield of all isomers in series [1] (from C=CCC/C=C/C(=O)OC/C(C)=C\[C@@H](C)[C@H](O[Si](C)(C)C(C)(C)C)[C@H](C=C)OC, Grubbs-II catalyst, 0.664 mM, 110.0 °C) of 55%.
`CO[C@H]1C=CCC/C=C/C(=O)O[C@H]([C@H](C)C(=O)CCCC2CC(=O)NC(=O)C2)/C(C)=C\[C@@H](C)[C@@H]1O[Si](C)(C)C(C)(C)C` showed a ring closure, yield of all isomers in series [1] (from C=CCC/C=C/C(=O)O[C@@H](/C(C)=C\[C@@H](C)[C@H](O[Si](C)(C)C(C)(C)C)[C@H](C=C)OC)[C@H](C)C(=O)CCCC1CC(=O)NC(=O)C1, Grubbs-II catalyst, 0.46 mM, 110.0 °C) of 69%.
Consider `CO[C@H]1C=CCCCCC(=O)CC/C(C)=C\[C@@H](C)[C@@H]1O[Si](C)(C)C(C)(C)C`, for which the ring closure, yield of all isomers in series [1] (from C=CCCCCC(=O)CC/C(C)=C\[C@@H](C)[C@H](O[Si](C)(C)C(C)(C)C)[C@H](C=C)OC, Grubbs-II, 0.508 mM, 111.0 °C) came to 81%.
In turn, `CO[C@H]1C=CCCCCC(=O)OC/C(C)=C\[C@@H](C)[C@@H]1O[Si](C)(C)C(C)(C)C` came in with a ring closure, yield of all isomers in series [1] (from C=CCCCCC(=O)OC/C(C)=C\[C@@H](C)[C@H](O[Si](C)(C)C(C)(C)C)[C@H](C=C)OC, Grubbs-II catalyst, 0.498 mM, 110.0 °C) of 76%.
`CO[C@H]1C=CCCCCC(=O)O[C@@H](C(C)C)/C(C)=C\[C@@H](C)[C@@H]1O` yielded a ring closure, yield of all isomers in series [1] (from C=CCCCCC(=O)O[C@H](/C(C)=C\[C@@H](C)[C@H](O[Si](C)(C)C(C)(C)C)[C@H](C=C)OC)C(C)C, Grubbs-II, 0.53 mM, 111.0 °C, 2 steps) of 65%.
Take `CO[C@H]1C=CCCCCC(=O)O[C@H]([C@H](C)C(=O)CCCC2CC(=O)NC(=O)C2)/C(C)=C\[C@@H](C)[C@@H]1O[Si](C)(C)C(C)(C)C`: the ring closure, yield of all isomers in series [1] (from C=CCCCCC(=O)O[C@@H](/C(C)=C\[C@@H](C)[C@H](O[Si](C)(C)C(C)(C)C)[C@H](C=C)OC)[C@H](C)C(=O)CCCC1CC(=O)NC(=O)C1, Grubbs-II catalyst, 0.48 mM, 110.0 °C) was 79%.
Turning to `COC1C=CCCCCC(=NNC(=O)CCOCCOCCOCCOCCNC(=O)CCCCC2SCC3NC(=O)NC32)CCC(C)=CC(C)C1O` (mixture of isomers) [biotinylated macrohydrazone (73), Biotinylated Macrohydrazone], in series [2], the 50% inhibitory concentration (IC50) was found to be 0.331 µM and the “inhibitory activity on 4T1 tumor cell migration, in words” value (shortened to “inhibitory activity”) was “inhibitory potency is largely retained”.
Consider `COC1C=CCCCCC(=O)OC(C(C)C(=O)CCCC2CC(=O)NC(=O)C2)C(C)=CC(C)C1O` (centres unmarked) [2,3-dihydromigrastatin (41), 2,3-Dihydromigrastatin], for which the Minimum effect concentration with HUVEC came out at 50 µM; with KYSE-520 cells it was 25 µM.
Turning to `COC1C=CCCCCC(=O)OC(C(C)C)C(C)=CC(C)C1O` [(R)-isopropyl macrolactone (68), (R)-Isopropyl Macrolactone], in series [2], it took 146 µM to reach half-maximal inhibition (IC50) and the “inhibitory activity” value is “only very weak effects on tumor cell migration”.
In the case of `COC1C=CCCCCC(=O)OC(C(C)C)C(C)=CC(C)C1O` [(S)-isopropyl macrolactone (65), (S)-Isopropyl Macrolactone], in series [2], the concentration for half-maximal inhibition (IC50) was 227 µM and the “inhibitory activity” value is recorded as “only very weak effects on tumor cell migration”.
`COC1C=CCCCCC(=O)OC(C(C)C(=O)CCCC2CC(=O)N(C)C(=O)C2)C(C)=CC(C)C1O` (centres unmarked) [N-methyl-2,3-dihydromigrastatin (42), N-Methyl-2,3-Dihydromigrastatin] returned a 50% inhibitory concentration (IC50) in series [2] of 7 µM.
For `CO[C@H]1/C=C/CCCCC(=O)OC/C(C)=C\[C@@H](C)[C@@H]1OC(C)=O` [acetylated macrolactone (49), Acetylated Macrolactone], the “inhibitory activity” value in series [2] is on record as “reduced by roughly an order of magnitude”.
As to `C[C@@H]1O[C@H]2C3=C(C(=O)[C@@H]4O[C@@H]4[C@H]3O)[C@@H]1[C@H]1[C@H](C)OC=C3[C@H](O)[C@H]4OC4C(=O)[C@@]312` (some centres unmarked) [epoxyquinol, epoxyquinol A, reference compound], the IC50 in series [2] turned out to be 0.026 µM.
For the molecule `CO[C@H]1/C=C/CCCCC(O)(C(F)(F)F)CC/C(C)=C\[C@@H](C)[C@@H]1O` (some centres unmarked) [macrocyclic CF3-alcohol (71), Macrocyclic CF3-Alcohol], in series [2], the “inhibitory activity” value was “displays the same activity profile as macroketone 60”.
Regarding `COC1C=CCCCCC(=O)NCC(C)=CC(C)C1O` (centres unmarked) [macrolactam (55), Macrolactam], the “lung metastasis, colonies (6-thioguanine clonogenic assay)” value in series [3] (10 mg/kg i.p. daily Day 7-25, Day 28) came to 5333±1778 colonies; in series [3] (20 mg/kg i.p. daily Day 7-25, Day 28), 5675±6263 colonies. Besides, the values for the inhibition of lung metastasis in series [3] (listed as macrolactam) and in series [3] (listed as macrolactam 55) were 91% and ~91%, respectively.
In the case of `COC1C=CCCC=CC(=O)OCC(C)=CC(C)C1O` (centres unmarked) [migrastatin core (45), Migrastatin Core], in series [4], the “stability (t1/2, mouse plasma)” value was determined as 20 min. Further, the “stability (t1/2, mouse plasma), in words” value in series [4] (60 min of incubation, stable = intensity of HPLC signal unchanged) was “hydrolyzed rapidly”. The same molecule showed a Minimum effect concentration in the series with HUVEC of 10 µM.
As for `CO[C@H]1/C=C/CCCCC(=O)OC/C(C)=C\[C@@H](C)C1=O` [oxidized macrolactone (50), Oxidized Macrolactone], the “inhibitory activity” value in series [2] is reported as “reduced by roughly an order of magnitude”.
